Measured values: PMC9492542, “Brain-restricted mTOR inhibition with binary pharmacology” (Nature, 2022)
Values joined by “and” are separate entries in the source; they are usually repeats but may differ in a detail not shown here. Equal entries are not always repeated. Where two headings read alike, the source gives them in different places. Values belong to the compound of their own block, whether it stands above or below them.

How the values were obtained:
FKBP12 = biological target: T1, FKBP12 (Homo sapiens, UniProt P62942); experiment: Competition fluorescence polarization assay with FITC-rapamycin tracer; format: binding
T1 construct: His-tag (HRV 3C cleavable) (cleaved yes); made in house; host or cells: Escherichia coli BL21(DE3)
T1 sequence (P62942 whole entry): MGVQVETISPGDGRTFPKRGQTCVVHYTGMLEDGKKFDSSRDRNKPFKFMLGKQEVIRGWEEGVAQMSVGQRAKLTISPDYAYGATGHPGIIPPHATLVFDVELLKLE
Description: Compound binding affinity was determined using a competition fluorescence polarization assay. […] The assay buffer was 20 mM HEPES pH 7.5 and 0.01% Triton X-100. […] Data were fitted to a three-parameter sigmoidal curve to derive IC50 values. Ki of the compounds were calculated using a tool provided by S. Wang’s laboratory (http://www.umich.edu/~shaomengwanglab/software/calc_ki/index.html). Data were plotted in GraphPad Prism 9.0.

LRRK2 = LRRK2 (Mus musculus, UniProt Q5S006); experiment: Phospho-LRRK2 (S935) quantification by TR-FRET in RAW264.7 cells; conditions: replicate raw data, 0 nM = 100
LRRK2, sequence (Q5S006 whole entry): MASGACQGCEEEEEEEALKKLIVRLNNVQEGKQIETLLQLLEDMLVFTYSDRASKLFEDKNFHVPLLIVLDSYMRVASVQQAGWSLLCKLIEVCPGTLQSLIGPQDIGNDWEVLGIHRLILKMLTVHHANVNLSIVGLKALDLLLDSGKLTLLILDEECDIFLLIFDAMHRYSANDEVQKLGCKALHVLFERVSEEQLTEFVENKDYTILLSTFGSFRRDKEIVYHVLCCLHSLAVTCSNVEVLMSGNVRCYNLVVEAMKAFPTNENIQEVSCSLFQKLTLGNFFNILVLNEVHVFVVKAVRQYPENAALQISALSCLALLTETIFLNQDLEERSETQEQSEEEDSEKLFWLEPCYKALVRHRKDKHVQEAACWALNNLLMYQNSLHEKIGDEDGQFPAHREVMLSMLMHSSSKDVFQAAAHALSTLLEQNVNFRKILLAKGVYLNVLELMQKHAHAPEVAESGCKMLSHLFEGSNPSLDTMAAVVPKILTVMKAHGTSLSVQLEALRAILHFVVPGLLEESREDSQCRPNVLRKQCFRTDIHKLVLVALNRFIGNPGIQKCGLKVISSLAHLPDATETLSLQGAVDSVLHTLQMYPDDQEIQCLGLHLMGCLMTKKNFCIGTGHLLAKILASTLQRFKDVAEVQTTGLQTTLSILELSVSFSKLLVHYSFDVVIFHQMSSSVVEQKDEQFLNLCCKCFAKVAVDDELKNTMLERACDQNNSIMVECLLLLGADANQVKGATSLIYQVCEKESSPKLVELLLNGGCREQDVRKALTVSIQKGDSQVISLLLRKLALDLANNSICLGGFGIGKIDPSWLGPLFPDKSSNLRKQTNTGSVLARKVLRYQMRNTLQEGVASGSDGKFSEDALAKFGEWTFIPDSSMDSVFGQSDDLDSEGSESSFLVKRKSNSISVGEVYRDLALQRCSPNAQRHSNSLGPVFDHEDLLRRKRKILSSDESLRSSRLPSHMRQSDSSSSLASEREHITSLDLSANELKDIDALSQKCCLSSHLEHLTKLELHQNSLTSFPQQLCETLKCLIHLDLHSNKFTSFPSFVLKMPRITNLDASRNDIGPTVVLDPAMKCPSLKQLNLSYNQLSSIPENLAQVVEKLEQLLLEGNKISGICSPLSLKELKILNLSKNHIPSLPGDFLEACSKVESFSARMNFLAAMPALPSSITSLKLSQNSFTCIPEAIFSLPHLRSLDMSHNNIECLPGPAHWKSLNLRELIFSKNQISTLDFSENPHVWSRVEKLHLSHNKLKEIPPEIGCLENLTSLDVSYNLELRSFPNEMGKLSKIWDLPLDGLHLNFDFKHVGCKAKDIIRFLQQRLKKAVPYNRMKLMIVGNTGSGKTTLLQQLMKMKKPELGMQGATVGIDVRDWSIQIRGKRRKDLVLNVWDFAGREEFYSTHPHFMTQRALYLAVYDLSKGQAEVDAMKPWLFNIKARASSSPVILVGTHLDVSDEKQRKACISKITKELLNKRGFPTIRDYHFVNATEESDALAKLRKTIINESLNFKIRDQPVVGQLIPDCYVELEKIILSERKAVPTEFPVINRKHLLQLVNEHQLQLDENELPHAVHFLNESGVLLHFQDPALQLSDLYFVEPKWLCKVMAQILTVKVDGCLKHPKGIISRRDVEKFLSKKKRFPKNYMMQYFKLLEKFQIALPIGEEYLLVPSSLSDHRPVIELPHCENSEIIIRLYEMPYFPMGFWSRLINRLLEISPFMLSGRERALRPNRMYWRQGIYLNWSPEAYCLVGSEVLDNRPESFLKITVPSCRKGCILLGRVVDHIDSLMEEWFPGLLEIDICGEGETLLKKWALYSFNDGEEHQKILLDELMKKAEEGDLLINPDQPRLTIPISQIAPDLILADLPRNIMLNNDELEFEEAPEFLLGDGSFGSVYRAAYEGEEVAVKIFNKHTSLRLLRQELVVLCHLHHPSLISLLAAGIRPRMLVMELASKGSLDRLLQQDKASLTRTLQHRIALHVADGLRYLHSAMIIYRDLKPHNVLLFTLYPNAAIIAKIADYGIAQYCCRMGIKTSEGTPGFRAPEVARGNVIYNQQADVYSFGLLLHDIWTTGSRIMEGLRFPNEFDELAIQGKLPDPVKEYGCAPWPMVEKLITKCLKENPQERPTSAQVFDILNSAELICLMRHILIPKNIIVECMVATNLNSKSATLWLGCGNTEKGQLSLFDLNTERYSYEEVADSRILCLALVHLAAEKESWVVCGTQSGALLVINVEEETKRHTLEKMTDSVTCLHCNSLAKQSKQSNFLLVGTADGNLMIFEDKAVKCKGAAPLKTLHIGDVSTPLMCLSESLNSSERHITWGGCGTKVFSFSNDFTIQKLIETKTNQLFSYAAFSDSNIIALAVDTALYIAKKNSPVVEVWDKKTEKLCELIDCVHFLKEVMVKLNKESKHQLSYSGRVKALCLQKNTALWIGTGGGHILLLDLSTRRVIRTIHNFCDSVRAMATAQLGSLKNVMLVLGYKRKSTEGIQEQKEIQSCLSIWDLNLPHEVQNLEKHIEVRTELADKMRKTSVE
Description: Phospho-LRRK2 (S935) was quantified in drug-treated cells using a Phospho-LRRK2 (Ser935) cellular kit (Cisbio) following the manufacturer’s instructions. […] Cells were treated with compounds at the indicated concentrations for 2 h. Medium was removed by aspiration and the cells were rinsed with ice-cold PBS (1 ml). Cells were lysed with 100 µl Cisbio 1X lysis buffer at 23 °C directly in plate for 30 min. […] Clarified lysate (16 µl) was dispensed into one well of a low-volume, round-bottom 384-well plate, and 4 µl LRRK2–phospho-LRRK2 (S935) antibody master mix (Cisbio) was added to each well. The plate was incubated at 23 °C for 4 h.
The TR-FRET signal was calculated as the ratio fluorescence intensity [read B]/[read A].

SMILES: CO[C@H]1C[C@@H](C)C/C(C)=C/[C@@H](CCCc2ccncc2)C(=O)C[C@H](O)[C@@H](C)[C@@H](/C(C)=C/[C@@H]2CC[C@@H](O)[C@H](OC)C2)OC(=O)[C@@H]2CCCCN2C(=O)C(=O)[C@]2(O)O[C@H]1[C@@H](OC)C[C@H]2C [Compound 05-085]
Kd (FKBP12): 1.5 nM

Kd (FKBP12; recombinant FKBP12, Extended Data Fig. 2, read-out: Kd (FKBP12)): 2.5 nM
SMILES: CO[C@H]1C[C@@H](C)C/C(C)=C/[C@@H](CCCc2cc[n+]([O-])cc2)C(=O)C[C@H](O)[C@@H](C)[C@@H](/C(C)=C/[C@@H]2CC[C@@H](O)[C@H](OC)C2)OC(=O)[C@@H]2CCCCN2C(=O)C(=O)[C@]2(O)O[C@H]1[C@@H](OC)C[C@H]2C [Compound 05-092]

SMILES: CCNc1nc(Nc2cc(F)c(C(=O)N3CCOCC3)cc2OC)ncc1C(F)(F)F [GNE-7915]
P-LRRK2(S935) in RAW264.7 cells (LRRK2; Conc 0.457247 nM): 93.9 and 94 and 94.8
P-LRRK2(S935) in RAW264.7 cells (LRRK2; Conc 1.37174 nM): 113.4 and 112.1 and 104.8
P-LRRK2(S935) in RAW264.7 cells (LRRK2; Conc 4.11523 nM): 116.1 and 116.6 and 114.3
P-LRRK2(S935) in RAW264.7 cells (LRRK2; Conc 12.3457 nM): 104.6 and 91.1 and 91.3
P-LRRK2(S935) in RAW264.7 cells (LRRK2; Conc 37.037 nM): 75.2 and 70.5 and 70.4
P-LRRK2(S935) in RAW264.7 cells (LRRK2; Conc 111.111 nM): 43.3 and 40.8 and 41
P-LRRK2(S935) in RAW264.7 cells (LRRK2; Conc 333.333 nM): 26.6 and 22.6 and 23.5
P-LRRK2(S935) in RAW264.7 cells (LRRK2; Conc 1000 nM): 17.7 and 14.2 and 15.7
